Values after ≈ are worked out from the molar mass of the structure shown.
test system: P388; assay: Antileukemic activity against mouse P388 cells xenografted in mouse at 200 mg/kg dosed for 1 day relative to control; assay type: functional; settings: not given

Compound | T/C [%]
O=c1[nH]cc(F)c(=O)[nH]1 [FLUOROURACIL] | 135

test system: KB; assay: Cytotoxicity against human KB cells; assay type: functional; settings: read-out: ED50 (the source's name)

Compound | EC50 [µg/mL]
CCCC(O)/C=C/C=C/C=C/C#CC#CCCCOC(=O)c1ccccc1 (centres undefined) | > 4
CCCC(/C=C/C=C/C=C/C#CC#CCCCOC(C)=O)OC(C)=O (centres undefined) | > 4
CCCC(/C=C/C=C/C=C/C#CC#CCCCOCOCc1ccccc1)OCOCc1ccccc1 (centres undefined) | > 4
CCC[C@@H](O)/C=C/C=C/C=C/C#CC#CCCCO [CICUTOXIN] | 2 (≈ 7.74 µM)
CCCC(=O)/C=C/C=C/C=C/C#CC#CCCCO | > 4
CCCC(O)CCCCCCCCCCCCCO (centres undefined) | > 4
CCCC(/C=C/C=C/C=C/C#CC#CCCCOCOCCOC)OCOCCOC (centres undefined) | > 4

test system: P388; assay: Antileukemic activity against mouse P388 cells xenografted in mouse at 1 mg/kg dosed for 3 days relative to control; assay type: functional; settings: not given

Compound | T/C [%]
CCC[C@@H](O)/C=C/C=C/C=C/C#CC#CCCCO [CICUTOXIN] | 165

From ChEMBL document CHEMBL1149022, “Antitumor agents, 85. Cicutoxin, an antileukemic principle from Cicuta maculata, and the cytotoxicity of the related derivatives” (1986)
